{"source": "patent US12349708B2", "about": "“Use and methods of 1,3-propanediol to improve taste and/or off-taste qualities” (Primient Covation LLC, priority 2019, dated 2025)", "test_system": "experienced and trained panelist", "experiment": "Sensorial comparison of energy shot prototypes at various malic acid and sucralose levels with and without bioPDO (Example 5)", "assay_type": "in vivo, human", "details": "0.2% bioPDO; sucralose and malic acid lowered by 32% and 47%", "description": "• 1. Take 1st sip from a full 30 mL medicine cup, taste and swallow the 1st sample, wait 10 seconds, then take a 2nd sip and lock it into memory. Wait for 10 seconds. • 2. Proceed with 2nd sample. Taste 1st sip of the 2nd sample, wait for 10 seconds, and then use the 2nd sip to compare to the 2nd sip (or 3rd sip) of the 1st sample.\nEach paired sample evaluation was repeated in triplicate with at least a 10-minute break and a carbon-treated water rinse.\nThe theory is to try to establish a reduced amount (concentration) of malic acid to match its sourness intensity of our energy shot prototype w/bioPDO to the control, energy shot prototype without bioPDO. Secondly, if this adjustment of lowering the malic acid concentration results in increasing sweetness, an additional step will be performed to reduce the amount of sucralose until both sourness and sweetness taste match that of the control w/o bioPDO. Below are the comparative sensorial evaluation results in Tables 33-36 including their specific sample formulations, observations, and results. Keywords of SUL, MA and CAF are sucralose, malic acid, and caffeine, respectively."}
{"smiles": "OCCCO", "note": "[PDO, 1,3-propanediol]", "values": [{"measurement": "taste quality effect of 0.2% addition", "result": "failed to further improve"}]}
